Data set [1] concerns differentiated primary iWAT cells. Kind of data set: Cellular oxygen consumption rate (Seahorse XF24), differentiated primary iWAT adipocytes. The data set is classed as cell-based, mouse. Particulars: 50 μM, in presence of oligomycin (1 μM). Here is the method:
(§1) C2C12, U2O5, and 293A cells were cultured in DMEM with 10% FBS and pen/strep. Primary inguinal (iWAT) and brown (BAT) adipocytes were obtained as follows. The stromal-vascular fraction of inguinal (iWAT) pad from 4-12 week old male mice was dissected, minced, and digested for 45 min. at 37° C. in PBS containing 10 mM CaCl2, 2.4 U/ml dispase II (Roche), and 1.5 U/ml collagenase D (Roche). The stromal-vascular fraction of brown fat (BAT) pads from newborn (P1-P14) pups was dissected, minced, and digested for 45 min at 37° C. in PBS containing 1.3 mM CaCl2, 120 mM NaCl, 5 mM KCl, 5 mM glucose, 100 mM HEPES, 4% BSA, and 1.5 mg/ml collagenase B (Roche). Digested tissue was diluted with adipocyte culture media (DMEM/F-12, GlutaMAX™ supplement, Life Technologies, with 10% FBS and pen/strep) and centrifuged (600×g for 10 min.). The pellet was resuspended in 10 ml adipocyte culture media, strained through a 40 μm filter, and plated. Differentiation was induced by application of an adipogenic cocktail containing 5 μg/ml insulin (Sigma), 5 μM dexamethasone (Sigma), 250 μM isobutylmethylxanthine (Sigma), and 1 μM rosiglitazone (Cayman) for 2 days. Two days after induction, cells were maintained in adipocyte culture media containing 5 μg/ml insulin and 1 μM rosiglitazone.
(§2) Cellular oxygen consumption rates were determined using an XF24 Extracellular Flux Analyzer (Seahorse Biosciences). Oligomycin was purchased from EMD Millipore, and FCCP and rotenone were purchased from Sigma. C2C12 or U2OS cells were seeded at 30,000 or 50,000 cells/well, respectively in an XF24 cell culture microplate (V7-PS, Seahorse Bioscience) and analyzed the following day. Primary iWAT or BAT adipocytes were seeded at 15,000 cells/well, differentiation was induced the following day as described, and the cells were analyzed on day 5. On the day of analysis, the cells were washed once with Seahorse respiration buffer (8.3 g/1 DMEM, 1.8 g/l NaCl, 1 mM pyruvate, 20 mM glucose, pen/strep), placed in 0.5 ml Seahorse respiration buffer, and incubated in a CO2-free incubator for 1 hr. Port injection solutions were prepared as follows (final concentrations in assay in parentheses): 10 μM oligomycin (1 μM final), […] amino acid (50 μM final), 2 μM FCCP (0.2 μM final), and 30 μM rotenone (3 μM final). The Seahorse program was run as follows: basal measurement, 3 cycles; inject port A (oligomycin), 3 cycles; inject port B (compounds), 8 cycles; inject port C (FCCP), 3 cycles; inject port D (rotenone), 3 cycles. Each cycle consisted of mix 4 min, wait 0 min, and measure 2 min. For data expressed as a percentage of oligomycin-treated basal, the respiration at cycle 6 was normalized to 100%, and the maximum respiration at any time point between cycles 7 and 15 inclusive was used.

Data set [2] deals with primary BAT adipocytes from UCP1-WT mice. Kind of data set: Cellular oxygen consumption rate, primary BAT adipocytes from UCP1-WT mice. Format: cell-based, mouse. The conditions noted are these: UCP1-WT cells, 50 μM. Here is the method: (§3) C2C12, U2O5, and 293A cells were cultured in DMEM with 10% FBS and pen/strep. Primary inguinal (iWAT) and brown (BAT) adipocytes were obtained as follows. The stromal-vascular fraction of inguinal (iWAT) pad from 4-12 week old male mice was dissected, minced, and digested for 45 min. at 37° C. in PBS containing 10 mM CaCl2, 2.4 U/ml dispase II (Roche), and 1.5 U/ml collagenase D (Roche). The stromal-vascular fraction of brown fat (BAT) pads from newborn (P1-P14) pups was dissected, minced, and digested for 45 min at 37° C. in PBS containing 1.3 mM CaCl2, 120 mM NaCl, 5 mM KCl, 5 mM glucose, 100 mM HEPES, 4% BSA, and 1.5 mg/ml collagenase B (Roche). […]
(§4) Cellular oxygen consumption rates were determined using an XF24 Extracellular Flux Analyzer (Seahorse Biosciences). […] C2C12 or U2OS cells were seeded at 30,000 or 50,000 cells/well, respectively in an XF24 cell culture microplate (V7-PS, Seahorse Bioscience) and analyzed the following day. Primary iWAT or BAT adipocytes were seeded at 15,000 cells/well, differentiation was induced the following day as described, and the cells were analyzed on day 5. […] For data expressed as a percentage of oligomycin-treated basal, the respiration at cycle 6 was normalized to 100%, and the maximum respiration at any time point between cycles 7 and 15 inclusive was used.

Data set [3] has as its system primary BAT adipocytes from UCP1-KO mice. Kind of data set: Cellular oxygen consumption rate, primary BAT adipocytes from UCP1-KO mice. The data set is classed as cell-based, mouse. The conditions noted are these: UCP1-KO cells, 50 μM. How it is done:
as §3, §4

The test system of data set [4] is primary inguinal fat cells, primary BAT cells, C2C12 cells, and U2OS cells. Description: Uncoupled respiration cellular assays (variety of cell types). The data set is classed as cell-based. Particulars: N-acyl amino acids at 10-100 uM.
The next data set deals with C2C12 cells. Description: Cellular oxygen consumption rate (uncoupled respiration), C2C12 cells. Format: cell-based, mouse. Particulars: 50 μM, after oligomycin 1 μM. Here is the method: as §1, §2
The test system of the next data set is proteins in C2C12 cells. Description: UV crosslinking with photo-probe and identification of N-acyl amino acid protein targets (TAMRA in-gel fluorescence, LC-MS/MS). Format: binding, mouse. Particulars: photo-probe 50 μM, 20 min, UV irradiation 10 min.
The target of data set [5] is T1, human PM20D1 (Homo sapiens, UniProt Q6GTS8).
T1 construct: host or cells: 293A cells, transient transfection; purified from conditioned medium
T1 sequence (Q6GTS8 26-502): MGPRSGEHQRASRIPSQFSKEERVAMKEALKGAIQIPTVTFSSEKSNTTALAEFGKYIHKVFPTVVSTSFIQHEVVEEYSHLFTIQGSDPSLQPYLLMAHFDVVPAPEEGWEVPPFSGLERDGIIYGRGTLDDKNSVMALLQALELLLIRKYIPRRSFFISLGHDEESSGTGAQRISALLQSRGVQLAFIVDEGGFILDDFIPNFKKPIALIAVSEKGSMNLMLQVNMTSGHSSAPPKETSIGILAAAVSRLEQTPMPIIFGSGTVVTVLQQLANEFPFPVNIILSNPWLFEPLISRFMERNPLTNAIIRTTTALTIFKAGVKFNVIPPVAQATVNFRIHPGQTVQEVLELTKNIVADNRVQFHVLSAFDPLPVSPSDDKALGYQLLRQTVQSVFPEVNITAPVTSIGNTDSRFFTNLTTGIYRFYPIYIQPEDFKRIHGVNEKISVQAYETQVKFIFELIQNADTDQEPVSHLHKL
Description: In vitro N-acyl amino acid synthase activity of human PM20D1. Format: biochemical. Particulars: purified human PM20D1-flag, oleate 1.5 mM, head group 100 μM. Here is the method: (§5) The concentrated media was centrifuged to remove debris (600×g, 10 min, 4° C.) and the supernatant containing PM20D1-flag was decanted into a new tube. PM20D1-Flag was immunoaffinity purified overnight at 4° C. from the concentrated media using magnetic Flag-M2 beads (Sigma Aldrich). The beads were collected, washed three times in PBS, eluted with 3× Flag peptide ([…] in PBS, Sigma Aldrich), aliquoted, and stored at −80° C. For the purification of human PM20D1-flag, hPM20D1-flag plasmid (Origene) was transiently transfected into 293A cells. After two days, the media was changed, harvested 24 h later, concentrated, and purified exactly as described above.
(§6) In vitro PM20D1-catalyzed synthesis of N-acyl amino acids was measured by incubating purified PM20D1 protein with oleate (1.5 mM) and phenylalanine (0.1 mM) in PBS (to 100 μl final volume) at 37° C. for 1.5 hrs. In vitro PM20D1-catalyzed N-acyl amino acid hydrolysis was measured by incubating purified PM20D1 protein with the indicated N-acyl amino acid (0.1 mM) in PBS (to 100 μl final volume) at 37° C. for 1.5 hrs. Reactions were terminated by placing the vials at −80° C. and the products generated in vitro were analyzed by mass spectroscopy (MS).
(§7) Briefly, frozen serum (30 μl) for polar metabolomic analyses were extracted in 160 μl of 1:1 acetonitrile/methanol with inclusion of internal standard D3, ^15N-serine (1 nmol). […]

The target in data set [6] is T1, human PM20D1. Kind of data set: In vitro N-acyl amino acid hydrolase activity of human PM20D1. The data set is classed as biochemical. Particulars: purified human PM20D1-flag, substrate 100 μM. How it is done: as §5, §6, §7

Description for proteins in C2C12 cells: Confluent 6-cm plates of C2C12 cells were washed twice with PBS and then treated with photo-probe (20 μM) with or without competitor (C20:4-Phe, 100 μM) in serum free media at 37° C. for 20 min. The media was aspirated. Cells were then placed on ice and UV-irradiated (10 min, UV Stratalinker 2400). Control samples were left on ice under ambient light.
Following UV irradiation, cells were then scraped, centrifuged (5 min, 1,400×g), washed once with cold PBS, and centrifuged again (5 min, 1,400×g). The cell pellets were resuspended in 0.3 ml PBS and sonicated. Click chemistry was performed as follows: To 50 μl cell lysate at 1 mg/ml was added 3 μl TBTA (stock solution: 1.7 mM in 4:1 v/v DMSO:t-BuOH), 1 ul CuSO4 (stock solution: 50 mM in water), 1 ul TCEP (freshly prepared, stock solution: 50 mM), and 1 ul TAMRA-N3 (stock solution: 1.25 mM in DMSO). Reactions were incubated at room temperature for 1 h, and then quenched with 4× SDS loading buffer (17 ul). In-gel TAMRA fluorescence was visualized on a Typhoon™ FLA 9000 scanner (GE Healthcare Life Sciences).

Consider `CCCCC/C=C\C/C=C\C/C=C\C/C=C\CCCC(=O)N[C@@H](Cc1ccccc1)C(=O)O` [C20:4-Phe, N-arachidonoyl phenylalanine], for which, in data set [1], the “maximal OCR versus DMSO at the same time point” value turned out to be 214% and the “maximal OCR versus oligomycin-treated basal respiration” value is listed as 243%. Further, the “maximal OCR versus the oligomycin-treated basal respiration” value in data set [2] was 221%. The “maximal OCR versus the oligomycin-treated basal respiration” value in data set [3] was 214%. The “uncoupled respiration in cells” value in data set [4] is “increased uncoupled respiration”.

For `C#CCCCCCCCCCCCCCCCC(=O)N[C@@H](CC1(C)N=N1)C(=O)O` [photo-probe, (S)-3-(3-methyl-3H-diazirin-3-yl)-2-(octadec-17-ynamido)propanoic acid], the “uncoupling activity (uncoupled respiration)” value in the data set with C2C12 cells is recorded as “competent inducer of uncoupled respiration”. In addition, the “crosslinking assessed by in-gel TAMRA fluorescence” value with proteins in C2C12 cells was “robust, UV-dependent crosslinking”.

B1: Human PM20D1: purified, recombinant human PM20D1-flag from transiently transfected 293A cells (protein, UniProt Q6GTS8 26-502, looked up)
N-fatty-acyl-amino acid …: T1 sequence (Q6GTS8 26-502)
modifications: FLAG tag
notes: purified, recombinant human PM20D1-flag from transiently transfected 293A cells
As to B1, the “N-acyl amino acid synthase activity” value with human PM20D1 [5] was “possessed N-acyl amino acid synthase and hydrolase activities”. Further, the “N-acyl amino acid hydrolase activity” value in the data set with human PM20D1 [6] is “possessed N-acyl amino acid synthase and hydrolase activities”.

For the origin of these results see patent publication US12194080B2, “Methods for identification, assessment, prevention, and treatment of metabolic disorders using PM20D1 and N-lipidated amino acids” (Dana-Farber Cancer Institute, Inc., priority 2015, dated 2025).
